US6479487B1, “6, 9-disubstituted 2-[trans-(4-aminocyclohexyl)amino] purines” (Aventis Pharmaceuticals Inc., priority 1998, dated 2002)
Where “and” joins values, the source holds several entries; their conditions need not be identical. Identical values can stand only once. Counter-ions that a name gives are not always drawn. Like-named read-outs stand apart in the source and are kept apart here.

Key:
MCF-7 = test: In vitro tumor cell proliferation, MCF-7; type: cell-based, human; details: sulforhodamine B or CyQUANT assay, read-out: In vitro Tumor Cell Proliferation (IC50, μM) Breast MCF-7
Method: (§1) The proliferation of tumor cells was measured using a sulforhodamine B assay as described in Skehan, P., et al., J. Natl. Cancer Inst. […] Tumor cells were harvested with trypsin-EDTA, cells that excluded trypan blue were counted, added to 96-well plates and incubated overnight at 37° C. Drug was added to the wells following dilution in culture medium. Three days later, the medium was removed and replenished with medium containing fresh drug and incubated an additional 4 days. The cells were then fixed with 0.1 ml 10% trichloroacetic acid for 60 min at 4° C. The plates were rinsed five times with tap water, air-dried and stained for 30 min with 0.4% sulforhodamine B in 1% acetic acid and air-dried.
(§2) Alternatively, the CyQUANT cell proliferation assay was used to quantitate cell proliferation.
(§3) Alternatively, the CyQUANT cell proliferation assay was used to quantify tumor cell proliferation. Tumor cells were harvested with trypsin-EDTA, cells that excluded trypan blue were counted, added to 96-well plates and incubated overnight at 37° C. Drug was added to the wells following dilution in culture medium. Three days later the medium was removed and the plates frozen at −80° C. for at least 30 minutes.
MCF7 is a human breast adenocarcinoma, hormone-dependent (HTB 22);

cdk4/cyclin D1 = target: T1, cdk4/cyclin D1 (Homo sapiens, UniProt P11802); test: Cyclin-dependent Kinase 4 Assay (cdk4/cyclin D1, GST-Rb substrate); type: biochemical; details: cdk4/cyclin D1 insect cell lysate, 10 μM ATP, 30 min at 37° C., several values = separate determinations, read-out: CDK4 Inhibition IC50
T1 construct: made in house; host or cells: Sf9 insect cells (Bac-to-Bac baculovirus, pFastBac)
T1 sequence (P11802 whole entry): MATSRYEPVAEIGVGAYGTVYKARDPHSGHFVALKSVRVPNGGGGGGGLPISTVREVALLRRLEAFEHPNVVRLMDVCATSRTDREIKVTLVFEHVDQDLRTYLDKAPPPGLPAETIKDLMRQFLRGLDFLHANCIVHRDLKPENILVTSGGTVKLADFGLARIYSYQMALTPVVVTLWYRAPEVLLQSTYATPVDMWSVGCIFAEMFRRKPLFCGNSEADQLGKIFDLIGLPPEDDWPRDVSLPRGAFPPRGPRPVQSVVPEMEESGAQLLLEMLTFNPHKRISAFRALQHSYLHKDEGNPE
T1 sequence (P24385 whole entry partner): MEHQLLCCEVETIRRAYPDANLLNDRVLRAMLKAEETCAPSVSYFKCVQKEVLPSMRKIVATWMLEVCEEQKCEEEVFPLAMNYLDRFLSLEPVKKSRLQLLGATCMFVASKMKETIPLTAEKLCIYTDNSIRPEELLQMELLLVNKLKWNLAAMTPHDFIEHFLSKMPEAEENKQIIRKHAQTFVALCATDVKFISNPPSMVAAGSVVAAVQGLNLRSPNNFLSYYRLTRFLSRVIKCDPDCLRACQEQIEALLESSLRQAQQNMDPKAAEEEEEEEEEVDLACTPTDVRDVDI
Procedure, shortened: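 Insect-cell lysate of coexpressed cdk4/cyclin D1 (0.1 μg) acts on GST-Rb (0.5 μg) bound to glutathione-Sepharose, in 50 mM HEPES pH 7.5, 10 mM MgCl2, 1 mM EGTA. Reaction runs 30 min at 37 °C, then is stopped by filtration and TNEN washes. Rb phosphorylation read by scintillation counting; IC50 derived.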

HCT-15 = test: In vitro tumor cell proliferation, HCT-15; type: cell-based, human; details: read-out: In vitro Tumor Cell Proliferation (IC50, μM) Colon HCT-15
Method: as §1, §2, §3

HT-29 = test: In vitro tumor cell proliferation, HT-29; type: cell-based, human; details: many values given with an undefined *, read-out: In vitro Tumor Cell Proliferation (IC50, μM) Colon HT-29
Procedure, shortened: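 HT-29 cells seeded overnight at 37° C, then exposed to drug for 3 days, refed with fresh drug-containing medium for 4 more days. Proliferation read by sulforhodamine B staining after TCA fixation; alternatively by CyQUANT after freezing plates at −80° C following 3 days' drug exposure.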

cdk2/cyclin E = target: T2, cdk2/cyclin E (Homo sapiens, UniProt P24941); test: Cyclin-Dependent Kinase 2 Assay (cdk2/cyclin E, GST-Rb substrate); type: biochemical; details: recombinant cdk2/cyclin E, 10 μM ATP, 30 min at 30° C., several values in a cell = separate determinations, read-out: CDK-2 Inhibition IC50
T2 construct: made in house; host or cells: insect cells (baculovirus co-infection)
Method: Substrate: GST-Rb as described above for cdk4/cyclin D1
Assay conditions for cdk2/cyclin E were identical to those for cdk4/cyclin D1 including the substrate. The concentration of recombinant cdk2/cyclin E in the assay was 0.1 μg per 100 μl assay. Incubation was for 30 min at 30° C.

PC-3 = test: In vitro tumor cell proliferation, PC-3; type: cell-based, human; details: many values given with an undefined *, read-out: In vitro Tumor Cell Proliferation (IC50, μM) Prostate PC-3
Procedure, shortened: (§4)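 Tumor cells were seeded overnight at 37° C, then exposed to drug diluted in culture medium for 3 days, refed with fresh drug-containing medium and kept 4 more days. Cells were fixed with 10% trichloroacetic acid and stained with 0.4% sulforhodamine B; alternatively, CyQUANT read proliferation after 3 days' drug exposure.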

DMS-114 = test: In vitro tumor cell proliferation, DMS-114; type: cell-based, human; details: many values given with an undefined *, read-out: In vitro Tumor Cell Proliferation (IC50, μM) Lung DMS-114
Procedure, shortened: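 Human small cell lung carcinoma DMS-114 cells plated overnight, then drug-treated for 3 days, medium and drug renewed, and incubated 4 more days. Growth read by sulforhodamine B staining after TCA fixation; alternatively by CyQUANT after 3 days' drug exposure and freezing at −80 °C.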

MDA-MB-231 = test: In vitro tumor cell proliferation, MDA-MB-231; type: cell-based, human; details: sulforhodamine B or CyQUANT assay, many values given with an undefined *, read-out: In vitro Tumor Cell Proliferation (IC50, μM) Breast MDA-MB-231
Procedure, shortened: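 Cells plated overnight at 37 °C, then exposed to drug for 3 days, refed with fresh drug and incubated 4 more days. Read-out by sulforhodamine B staining after TCA fixation; alternatively, CyQUANT after 3-day drug exposure and freezing at −80 °C.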

DU145 = test: In vitro tumor cell proliferation, DU145; type: cell-based, human; details: many values given with an undefined *, read-out: In vitro Tumor Cell Proliferation (IC50, μM) Prostate DU145
Procedure, shortened: as §4

A549 = test: In vitro tumor cell proliferation, A549; type: cell-based, human; details: many values given with an undefined *, read-out: In vitro Tumor Cell Proliferation (IC50, μM) Lung A549
Procedure, shortened: as §4

[1] = Homo sapiens, MDA-MB-231, MDA-MB-231

| Structure (SMILES) | IC50 (MCF-7; Homo sapiens, MCF7, MCF-7) [µM] | IC50 (cdk4/cyclin D1) | IC50 (HCT-15; Homo sapiens, HCT-15, HCT-15) [µM] | IC50 (HT-29; Homo sapiens, HT-29, HT-29) [µM] | IC50 (cdk2/cyclin E) | IC50 (PC-3; Homo sapiens, PC-3, PC-3) [µM] | IC50 (PC-3; PC-3, dihydrochloride) [µM] | IC50 (DMS-114; DMS-114, dihydrochloride) [µM] | IC50 (DMS-114; Homo sapiens, DMS-114, DMS-114) [µM] | IC50 (MCF-7; MCF-7, dihydrochloride) [µM] | IC50 (MDA-MB-231; [1]) [µM] | IC50 (MDA-MB-231; MDA-MB-231, dihydrochloride) [µM] | IC50 (DU145; DU145, dihydrochloride) [µM] | IC50 (DU145; Homo sapiens, DU-145, DU145) [µM] | IC50 (HCT-15; HCT-15, dihydrochloride) [µM] | IC50 (HT-29; HT-29, dihydrochloride) [µM] | IC50 (A549; A549, dihydrochloride) [µM] | IC50 (A549; Homo sapiens, A549, A549) [µM] | other results |
| --- | --- | --- | --- | --- | --- | --- | --- | --- | --- | --- | --- | --- | --- | --- | --- | --- | --- | --- | --- |
| N[C@H]1CC[C@H](Nc2nc(NCc3cccc(I)c3)c3ncn(C4C=CCC4)c3n2)CC1 (relative stereo) [Example 35, 2-[Trans-(4-aminocyclohexyl)amino]-6-[(3-iodobenzyl)amino]-9-(2-cyclopentenyl)purine hydrochloride] | 2.9 | 9400 nM and 7700 nM | 5.7 | 2.1 | 490 nM and 140 nM |  |  |  |  |  |  |  |  |  |  |  |  |  | IC50 (MCF-7; MCF-7, hydrochloride): 1.9 µM; IC50 (HCT-15; HCT-15, hydrochloride): 4 µM; IC50 (HT-29; HT-29, hydrochloride): 1.9 µM |
| N[C@H]1CC[C@H](Nc2nc(NCc3ccc(C(F)(F)F)cc3)c3ncn(C4CCCC4)c3n2)CC1 [Example 1, 2-[Trans-(4-aminocyclohexyl)amino]-6-[(4-trifluorobenzyl)amino]-9-cyclopentylpurine dihydrochloride] | 1.2 | 2000 nM and 2700 nM and 1700 nM | 2.4 | 1.5 | 120 nM and 81 nM | 0.96 | 1 | 0.86 | 1.1 | 1.6 | 1.4 | 1.5 | 1.5 | 1.4 | 2.5 | 1.6 | 0.9 | 0.97 |  |
| COc1ccc(CNc2nc(N[C@H]3CC[C@H](N)CC3)nc3c2ncn3C2CCCC2)cc1 [Example 8, 2-[Trans-(4-aminocyclohexyl)amino]-6-[(4-methoxybenzyl)amino]-9-cyclopentylpurine dihydrochloride] |  | 6600 nM and 3200 nM | 4.5 | 1.3 | 30 nM (2×) and 48 nM and 22 nM | 0.98 | 0.63 | 0.89 | 0.8 |  | 0.88 | 1.2 | 1.2 | 0.88 | 3.5 | 1.4 | 1.1 | 0.8 |  |
| COc1ccccc1CNc1nc(N[C@H]2CC[C@H](N)CC2)nc2c1ncn2C1CCCC1 [Example 12, 2-[Trans-(4-aminocyclohexyl)amino]-6-[(2-methoxybenzyl)amino]-9-cyclopentylpurine dihydrochloride] |  | 4500 nM and 6200 nM | 16 | 7.3 | 230 nM | 4.4 | 3.5 |  | 5.4 |  | 8.6 | 11 | 6.7 | 3.5 |  | 8.5 | 3.5 | 5.6 |  |
| COc1cccc(CNc2nc(N[C@H]3CC[C@H](N)CC3)nc3c2ncn3C2CCCC2)c1OC [Example 13, 2-[Trans-(4-aminocyclohexyl)amino]-6-[(2,3-dimethoxybenzyl)amino]-9-cyclopentylpurine dihydrochloride] | 2 | 2900 nM |  | 3.1 | 50 nM | 1.9 | 1.3 | 1.4 | 1 |  | 2.2 | 2.6 | 1.7 | 0.99 |  | 3.4 |  | 1.7 |  |
| COc1ccc(CNc2nc(N[C@H]3CC[C@H](N)CC3)nc3c2ncn3C2CCCC2)c(OC)c1 [Example 17, 2-[Trans-(4-aminocyclohexyl)amino]-6-[(2,4-dimethoxybenzyl)amino]-9-cyclopentylpurine dihydrochloride] |  |  | 9.9 | 6.8 | 350 nM | 4 |  | 5.8 | 5.3 |  | 6.1 | 7.9 | 6.9 | 3.6 |  |  | 7.5 | 6.8 |  |
| N[C@H]1CC[C@H](Nc2nc(NCc3ccccc3C(F)(F)F)c3ncn(C4CCCC4)c3n2)CC1 [Example 25, 2-[Trans-(4-aminocyclohexyl)amino]-6-[(2-trifluorobenzyl)amino]-9-cyclopentylpurine dihydrochloride] |  | 6400 nM and 6900 nM | 4 | 2.6 | 260 nM | 1.1 | 1.7 | 0.95 | 0.85 |  | 4.5 | 4.3 | 1.7 | 0.95 | 3.7 | 3 |  | 1.9 |  |
| COc1cc(CNc2nc(N[C@H]3CC[C@H](N)CC3)nc3c2ncn3C2CCCC2)cc(OC)c1 [Example 28, 2-[Trans-(4-aminocyclohexyl)amino]-6-[(3 5-dimethoxybenzyl)amino]-9-cyclopentylpurine dihydrochloride] | 5.6 | 2200 nM and 2600 nM | > 20 | 12 | 480 nM | 4.8 | 6.4 | 7.7 | 6.1 | 11 | 12 |  | 9.1 | 6.4 |  |  |  | 1.9 |  |
| COc1ccc(CNc2nc(N[C@H]3CC[C@H](N)CC3)nc3c2ncn3C2CCCC2)cc1OC [Example 34, 2-[Trans-(4-aminocyclohexyl)amino]-6-[3,4-dimethoxybenzyl)amino]-9-cyclopentylpurine dihydrochloride] | 2.3 | 1200 nM and 800 nM | 7.7 | 3.4 | 80 nM | 1 | 2 | 4.5 | 4.2 | 3.5 | 3.4 | 5.8 | 4.3 | 2.7 |  | 6 | 4.8 | 3.4 |  |
